Converted amounts (≈) assume the structure as drawn. Like-named read-outs stand apart in the source and are kept apart here.
Key:
[1] = parameters: method as in Abraham et al., 2016; conditions: ref Abraham et al., 2016, cited from earlier work
[2] = system: Acinetobacter spp.; assay: Checkerboard, summary for Acinetobacter spp.; format: cell-based; conditions: in the presence of EDTA and PMBN
Description: (§1) Briefly, antimicrobial stock solutions for robenidine and PMBN were prepared at a concentration of 12.8 mg/ml in DMSO. […] A 1 μl aliquot of the first compound from each combination was dispensed along the abscissa (from row A to G) of the 96-well microplate, while the second compound was dispensed along the ordinate (from column 12 to column 3) using an electronic multichannel pipette followed by 89 μl of LB broth. Each well of the plate was inoculated with an aliquot of 10 μl bacterial suspension at a concentration of 1-5 × 10^6 colony forming units (CFU) per ml. Subsequently, the plate was incubated at 37°C for 24 h. The fractional inhibitory concentration index (FICI) described the results of the combinations, and was calculated utilizing the following formula:
(§2) DRI = MIC of drug alone/MIC of drug in combination

[3] = system: clinical MRSA; parameters: method as in Abraham et al., 2016; Ogunniyi et al., 2017; conditions: ref Abraham et al., 2016, Ogunniyi et al., 2017; cited from earlier work
[4] = system: P. aeruginosa (n = 30) clinical isolates from otitis externa cases in dogs; assay: MIC/MBC and checkerboard, canine otitis externa isolates; format: cell-based, Pseudomonas aeruginosa; conditions: for MIC50 / MIC90: Pseudomonas aeruginosa; for MIC50, in combination of EDTA and ROB / MIC90, in combination of EDTA and ROB / MIC range, in combination of EDTA and ROB: concentration of the labelled component
Source text: (§3) Escherichia coli ATCC 25922, E. coli ATCC 11229, P. aeruginosa ATCC 27853, P. aeruginosa PA01, Pseudomonas putida ATCC 17428, P. mirabilis ATCC 43071, K. pneumoniae ATCC 13883, A. baumannii ATCC 19606, and A. baumannii ATCC 12457 were used for preliminary susceptibility testing and combination experiments. S. aureus ATCC 29213 and S. pneumoniae ATCC 49619 were used as internal quality controls. A variety of bacterial organisms from both human and canine infections were investigated in this study (n = 119 isolates in total). Twenty-eight clinical Acinetobacter spp. isolates were obtained from cases of human skin and soft tissue infections, including 18 Acinetobacter baumannii and 10 A. calcoaceticus, kindly provided by a person (Institute of Medical and Veterinary Science, South Australia). […] Ninety-one clinical isolates were obtained from cases of canine otitis externa, including seven methicillin-susceptible S. pseudintermedius (MSSP), 13 multidrug- and methicillin-resistant S. pseudintermedius (MRSP) ([Saputra et al., 2017]), 20 beta-haemolytic Streptococcus spp., 30 P. aeruginosa (10 of them resistant to gentamicin and 21 P. mirabilis isolates). These isolates were obtained from the bacterial collection of the national survey of antimicrobial resistance in animals conducted in Australia. Swab samples from dogs with signs of otitis externa were collected by veterinarians and submitted to government, private or university diagnostic laboratories throughout Australia. After routine bacterial identification and the removal of confidential information, the participating veterinary diagnostic laboratories submitted the bacteria and their clinical information to PC2 Laboratories, Australian Centre for Antimicrobial Resistance Ecology, School of Animal and Veterinary Sciences, University of Adelaide, Roseworthy Campus, Roseworthy, SA, Australia, for further study. Thus, animal ethics approval was not required in this study. These organisms were identified to species level using biochemical testing and MALDI-TOF mass spectrometry (Bruker, Preston, VIC, Australia).
(§4) The MIC for ampicillin or gentamicin against each isolate was determined for each test to serve as an internal quality control. The MICs of isolates were determined by visual reading and using an EnSpire Multimode Plate Reader 2300 atA600nm.
(§5) Briefly, 10 μl aliquots from each duplicate well from the MIC assays (starting from the MIC for each compound) were inoculated onto a sheep blood agar (SBA) plate and incubated at 37°C.
as §1, §2

[5] = system: S. aureus ATCC 29213; assay: MIC broth microdilution, quality control strain; format: cell-based; conditions: Staphylococcus aureus, ATCC29213; S. aureus ATCC 29213, quality control strain
Description: Luria Bertani (LB) broth (Oxoid, Australia) was applied for MIC testing in lieu of cation-adjusted Mueller–Hinton broth as robenidine has been previously shown to chelate calcium ions. Furthermore, a twofold serial dilution of robenidine was performed in 100% DMSO, with 1 μl dispensed to each well due to the hydrophobicity of the compound ([Abraham et al., 2016]). The MIC for ampicillin or gentamicin against each isolate was determined for each test to serve as an internal quality control. The MICs of isolates were determined by visual reading and using an EnSpire Multimode Plate Reader 2300 atA600nm.

[6] = system: 10 A. calcoaceticus isolated from human clinical cases; assay: MIC/MBC, human clinical Acinetobacter isolates; format: cell-based; conditions: 10 A. calcoaceticus human clinical isolates
Source text: as §3, §4, §5

[7] = system: 18 A. baumannii isolated from human clinical cases; assay: MIC/MBC, human clinical Acinetobacter isolates; format: cell-based; conditions: 18 A. baumannii human clinical isolates
Source text: as §3, §4, §5

[8] = system: MDCK cell line; assay: In vitro cytotoxicity, WST-1; format: cell-based, canine; conditions: Canis lupus familiaris, 10% FBS, read-out: IC50, single agent
Description: (§6) Cells were maintained in Dulbecco’s modified Eagle’s medium (DMEM) with 10% fetal bovine serum (FBS) and 1% PenStrep (100 U/mL Penicillin and 100 μg/mL Streptomycin) at 37°C with 5% CO2. Cells were serially passaged at ∼80% confluence ∼ every 4 days. Assays were performed in duplicate in 96 well plates seeded with ∼25,000 cells per well. […] Briefly, the antimicrobials were prepared by performing a twofold serial dilution at 100× of tested concentration in DMSO. Subsequently, a 1 μl aliquot of each concentration was transferred to a sterile 96-well plate containing fresh DMEM with either 10% FBS. After mixing four times, the media aliquots with different concentrations of antimicrobial were transferred to each well of the 96-well plate seeded with cells, using wells containing 1–2% DMSO only as control. To determine the effect of FBS on the cytotoxicity of each compound, DMEM with 40% FBS containing different concentrations of antimicrobial was prepared as described above. After 24 h of exposure, WST-1 reagent (Cell Proliferation Assay reagent, Roche) at a concentration of 10% was added to each well. Absorbance at A450 nm on a Multiskan Ascent 354 Spectrophotometer (Labsystems) was measured after 1 h of incubation. The IC50 value was determined for each compound against each cell line via non-linear regression (three parameters) using GraphPad Prism v6 software.

[9] = system: all the cell lines tested (HaCaT, HEK 293, MDCK); assay: cells
Description: as §6

[10] = canine otitis externa, read-out: MIC50, single drug
[11] = canine otitis externa, read-out: MIC90, single drug

Compound: N=C(N/N=C/c1ccc(Cl)cc1)N/N=C/c1ccc(Cl)cc1 [ROB, robenidine]
- serum impact on MIC values ([1]; 10% serum): fourfold increase
- serum impact on MIC values ([1]; 50% serum): no antimicrobial activity
- fold reduction of robenidine MICs [2]: 8- to 32 fold
- effective concentrations (MIC range) [3]: 1 to 2 µg/mL
- MBC/MIC, ROB in combination with EDTA [4]: ≥2
- MIC50 [4, 10]: > 256 µg/mL
- MIC90 [4, 11]: > 256 µg/mL
- MIC range, single drug ([4]; canine otitis externa): >256 µg/mL
- MIC50, in combination of EDTA and ROB [4]: 0.25 µg/mL
- MIC90, in combination of EDTA and ROB [4]: 2 µg/mL
- MIC range, in combination of EDTA and ROB [4]: 0.125 to 4 µg/mL
- MIC [5]: 2 µg/mL (≈ 5.98 µM)
- MIC range [6]: 1 to 8 µg/mL
- MIC ([6]; Acinetobacter calcoaceticus): 2 µg/mL
- MIC range [7]: 8 to 64 µg/mL
- MIC ([7]; Acinetobacter baumannii): 8 µg/mL

Compound: O=C(O)CN(CCN(CC(=O)O)CC(=O)O)CC(=O)O [EDTA, ethylenediaminetetraacetic acid]
- IC50 [8]: 3.4 mM
- IC50 [9]: 3.4 mM
- MBC/MIC row, EDTA in combination [4]: 750 µg/mL
- MBC/MIC row, EDTA in combination (mM in parentheses) [4]: 2 mM
- MIC range, single drug (mM in parentheses) [4]: 2 to 12 mM
- MIC50, in combination of EDTA and ROB (mM in parentheses) ([4]; EDTA component): 4 mM
- MIC90, in combination of EDTA and ROB (mM in parentheses) ([4]; EDTA component): 4 mM
- MIC range, in combination of EDTA and ROB (mM in parentheses) ([4]; EDTA component): 1 to 4 mM
- MIC50 [4, 10]: 3000 µg/mL
- MIC90 [4, 11]: 3000 µg/mL
- MIC50 ([4]; read-out: MIC50, single drug (mM in parentheses)): 8 mM
- MIC90 ([4]; read-out: MIC90, single drug (mM in parentheses)): 8 mM
- MIC range, single drug ([4]; canine otitis externa): 750 to 4500 µg/mL
- MIC50, in combination of EDTA and ROB [4]: 1500 µg/mL
- MIC90, in combination of EDTA and ROB [4]: 1500 µg/mL
- MIC range, in combination of EDTA and ROB [4]: 380 to 1500 µg/mL

From article PMC6494957 (Frontiers in Microbiology, 2019)
